Test results published in US10981879B2, “Thioether triazolopyridine and triazolopyrimidine inhibitors of myeloperoxidase” (BRISTOL-MYERS SQUIBB COMPANY, priority 2014, dated 2021).

The compounds below were run against T1, myeloperoxidase (MPO) (Homo sapiens (Human), UniProt P05164) (assay: MPO peroxidation assay (Amplex Red)). Details: Table 1.
T1 sequence (P05164 49-745): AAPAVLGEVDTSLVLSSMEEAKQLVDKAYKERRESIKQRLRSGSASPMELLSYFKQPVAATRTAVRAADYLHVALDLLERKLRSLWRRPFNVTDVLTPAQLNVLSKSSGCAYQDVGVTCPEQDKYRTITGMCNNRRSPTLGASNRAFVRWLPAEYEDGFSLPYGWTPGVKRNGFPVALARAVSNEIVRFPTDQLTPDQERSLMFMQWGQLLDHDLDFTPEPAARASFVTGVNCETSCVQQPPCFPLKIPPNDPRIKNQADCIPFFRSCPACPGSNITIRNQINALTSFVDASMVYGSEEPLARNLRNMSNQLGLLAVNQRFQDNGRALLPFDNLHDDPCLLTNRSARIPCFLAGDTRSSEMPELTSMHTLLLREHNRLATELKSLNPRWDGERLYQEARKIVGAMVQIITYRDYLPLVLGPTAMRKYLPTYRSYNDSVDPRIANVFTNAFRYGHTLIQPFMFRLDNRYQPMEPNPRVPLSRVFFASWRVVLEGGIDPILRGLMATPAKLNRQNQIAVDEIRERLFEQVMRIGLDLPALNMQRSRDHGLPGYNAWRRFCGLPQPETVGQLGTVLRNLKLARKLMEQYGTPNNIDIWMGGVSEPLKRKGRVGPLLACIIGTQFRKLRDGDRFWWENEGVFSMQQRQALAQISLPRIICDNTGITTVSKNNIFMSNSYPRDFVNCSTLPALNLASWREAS
Assay type: biochemical
Description: MPO peroxidation activity was measured in 100 mM KPi (pH 7.4) by utilizing the non-fluorescent reagent Amplex Red (Invitrogen catalog #A12222) which can be oxidized to the highly fluorescent resorufin. Amplex Red is oxidized by the peroxidase action of MPO to resorufin. Reactions were carried out in 50 μL total volume by adding a 25 μL mixture of 200 pM myeloperoxidase and 40 nM H2O2 (Sigma #349887) to 100 nL inhibitor in 100% DMSO in a 384 well Perkin Elmer Optiplate. Enzyme and compound were preincubated for ten minutes at rt.
After the ten minute preincubation, 25 μL of an Amplex Red mixture containing 200 μM Amplex Red and 10 mM H2O2 was added to the plate. Kinetic determinations were carried out immediately on a Perkin Elmer Envision (15 minute kinetic read, Ex: 535 nm, Em: 590 nm).
IC50 values were calculated by determining the slope of the linear portion of the kinetic trace (180-540 secs), and using that calculated slope to determine % inhibition occurring at each concentration of inhibitor using the following equation:
[formula] where A=minimal Y value (activity level of inhibited sample), B=maximal Y value (activity level of uninhibited sample), C=Log IC50, D=Hill Slope, x=concentration of inhibitor. MPO Chlorination Assay
For `Nc1cc(SCc2ncccn2)c2nn[nH]c2n1` [Example 57, 7-((pyrimidin-2-ylmethyl)thio)-3H-[1,2,3]triazolo[4,5-b]pyridin-5-amine], the IC50 was 0.1 µM. For `Nc1cc(SCc2cc(F)c(-c3ncon3)cc2F)c2nn[nH]c2n1` [Example 28, 7-((2,5-difluoro-4-(1,2,4-oxadiazol-3-yl)benzyl)thio)-3H-[1,2,3]triazolo[4,5-b] pyridin-5-amine], the IC50 was 0.01 µM. Compound `Cc1nn(-c2ccccc2)c(Cl)c1CSc1cc(N)nc2[nH]nnc12` [Example 79, 7-(((5-chloro-3-methyl-1-phenyl-1H-pyrazol-4-yl)methyl)thio)-3H-[1,2,3] triazolo[4,5-b]pyridin-5-amine] has an IC50 of 0.03 µM. `Cc1nn(-c2ccc(F)cc2)c(C)c1CSc1cc(N)nc2[nH]nnc12` [Example 72, 7-(((1-(4-fluorophenyl)-3,5-dimethyl-1H-pyrazol-4-yl)methyl)thio)-3H-[1,2,3] triazolo[4,5-b]pyridin-5-amine] gave an IC50 of 0.46 µM. `Nc1nc(SCc2ccccc2CN2CCCC2)c2nn[nH]c2n1` [Example 166, 7-((2-(pyrrolidin-1-ylmethyl)benzyl)thio)-3H-[1,2,3]triazolo[4,5-d] pyrimidin-5-amine] was tested, and the IC50 was 0.79 µM. `Nc1cc(SCc2ccccc2-n2cccn2)c2nn[nH]c2n1` [Example 41, 7-((2-(1H-pyrazol-1-yl)benzyl)thio)-3H-[1,2,3] triazolo[4,5-b]pyridin-5-amine] showed an IC50 of 0.02 µM.

What follows are compounds tested against T1, myeloperoxidase (MPO) (assay: MPO chlorination assay (APF)). Details: not given.
Assay type: biochemical
Summary of the method: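 Human MPO (200 pM) with 120 mM NaCl preincubated with inhibitor 10 minutes at rt in 100 mM KPi pH 7.4. Reaction started with APF mixture containing 10 μM H2O2; fluorescein fluorescence (ex 485/em 535 nm) read kinetically 3 minutes. IC50 from slopes of linear kinetic portion, fitted with a four-parameter Hill equation.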
`Nc1cc(SCc2cn(-c3cnccn3)nc2C(F)F)c2nn[nH]c2n1` [Example 152, 7-(((3-(difluoromethyl)-1-(pyrazin-2-yl)-1H-pyrazol-4-yl)methyl)thio)-3H-[1,2,3]triazolo [4,5-b]pyridin-5-amine] was tested, and the IC50 was 0.2 to 1 µM. Work on `Nc1cc(SCc2nn(-c3ccccc3)nc2C(F)F)c2nn[nH]c2n1` [Example 153, 7-(((5-(difluoromethyl)-2-phenyl-2H-1,2,3-triazol-4-yl)methyl)thio)-3H-[1,2,3]triazolo [4,5-b]pyridin-5-amine] yielded an IC50 of 0.06 to 0.2 µM.

Same assay, conditions: MPO chlorination assay (APF), Table 1; read-out: APF IC50
`Nc1cc(SCc2ncccn2)c2nn[nH]c2n1` [Example 57, 7-((pyrimidin-2-ylmethyl)thio)-3H-[1,2,3]triazolo[4,5-b]pyridin-5-amine] showed an IC50 of 0.5 µM. With `Nc1cc(SCc2cc(F)c(-c3ncon3)cc2F)c2nn[nH]c2n1` [Example 28, 7-((2,5-difluoro-4-(1,2,4-oxadiazol-3-yl)benzyl)thio)-3H-[1,2,3]triazolo[4,5-b] pyridin-5-amine] the IC50 was 0.08 µM. `Cc1nn(-c2ccccc2)c(Cl)c1CSc1cc(N)nc2[nH]nnc12` [Example 79, 7-(((5-chloro-3-methyl-1-phenyl-1H-pyrazol-4-yl)methyl)thio)-3H-[1,2,3] triazolo[4,5-b]pyridin-5-amine] was tested, and the IC50 was 0.007 µM. For `Cc1nn(-c2ccc(F)cc2)c(C)c1CSc1cc(N)nc2[nH]nnc12` [Example 72, 7-(((1-(4-fluorophenyl)-3,5-dimethyl-1H-pyrazol-4-yl)methyl)thio)-3H-[1,2,3] triazolo[4,5-b]pyridin-5-amine], the IC50 was 0.58 µM. `Nc1nc(SCc2ccccc2CN2CCCC2)c2nn[nH]c2n1` [Example 166, 7-((2-(pyrrolidin-1-ylmethyl)benzyl)thio)-3H-[1,2,3]triazolo[4,5-d] pyrimidin-5-amine] showed an IC50 of 0.57 µM. Compound `Nc1cc(SCc2ccccc2-n2cccn2)c2nn[nH]c2n1` [Example 41, 7-((2-(1H-pyrazol-1-yl)benzyl)thio)-3H-[1,2,3] triazolo[4,5-b]pyridin-5-amine] has an IC50 of 0.08 µM.

Same assay, conditions: MPO chlorination assay, ranges given; read-out: MPO chlorination assay IC50
With `N#Cc1cc(Br)ccc1CSc1cc(N)nc2[nH]nnc12` [Example 21, 2-(((5-amino-3H-[1,2,3]triazolo[4,5-b]pyridin-7-yl)thio)methyl)-5-bromobenzonitrile] the IC50 was 0.06 to 0.2 µM. `Nc1cccc(CSc2cc(N)nc3[nH]nnc23)n1` [Example 27, 7-(((6-aminopyridin-2-yl)methyl)thio)-3H-[1,2,3] triazolo[4,5-b]pyridin-5-amine] showed an IC50 of 0.2 to 1 µM. Work on `N#Cc1ccc(CSc2cc(N)nc3[nH]nnc23)c(F)c1` [Example 47, 4-(((5-amino-3H-[1,2,3]triazolo[4,5-b]pyridin-7-yl)thio)methyl)-3-fluorobenzonitrile] yielded an IC50 of at most 0.06 µM. `Nc1cc(SCc2ccccc2CN2CCCCC2)c2nn[nH]c2n1` [Example 97, 7-((2-(piperidin-1-ylmethyl)benzyl)thio)-3H-[1,2,3] triazolo[4,5-b]pyridin-5-amine] gave an IC50 of 0.06 to 0.2 µM. Work on `Nc1cc(SCc2ccc(Cl)cc2)c2nn[nH]c2n1` [Example 8, 7-((4-chlorobenzyl)thio)-3H-[1,2,3]triazolo [4,5-b]pyridin-5-amine] yielded an IC50 of at most 0.06 µM. Compound `CCc1nn(-c2ccccc2)nc1CSc1cc(N)nc2[nH]nnc12` [Example 63, 7-(((5-ethyl-2-phenyl-2H-1,2,3-triazol-4-yl)methyl)thio)-3H-[1,2,3]triazolo[4,5-b]pyridin-5-amine] has an IC50 of 0.06 to 0.2 µM. For `Nc1cc(SCc2ccccc2CS(=O)(=O)c2ccccc2)c2nn[nH]c2n1` [Example 35, 7-((2-((phenylsulfonyl)methyl)benzyl)thio)-3H-[1,2,3]triazolo[4,5-b]pyridin-5-amine], the IC50 was 0.06 to 0.2 µM. In the case of `Cc1nn(-c2ccccc2)c(Cl)c1CSc1nc(N)nc2[nH]nnc12` [Example 156, 7-(((5-chloro-3-methyl-1-phenyl-1H-pyrazol-4-yl)methyl)thio)-3H-[1,2,3] triazolo[4,5-b]pyrimidin-5-amine], the IC50 is reported as 0.06 to 0.2 µM. In the case of `Nc1cc(SCc2cccc3c2OC(F)(F)O3)c2nn[nH]c2n1` [Example 105, 7-(((2,2-difluorobenzo[d] [1,3]dioxol-4-yl)methyl)thio)-3H-[1,2,3]triazolo[4,5-b]pyridin-5-amine], the IC50 is reported as 0.06 to 0.2 µM. `Nc1cc(SCc2cc(Cl)ccc2S(=O)(=O)Cc2ccccc2)c2nn[nH]c2n1` [Example 61, 7-((2-(benzylsulfonyl)-5-chlorobenzyl)thio)-3H-[1,2,3]triazolo[4,5-b]pyridin-5-amine] was tested, and the IC50 was 0.06 to 0.2 µM. Compound `N#Cc1ccc(CSc2cc(N)nc3[nH]nnc23)c(Cl)c1` [Example 124, 4-(((5-amino-3H-[1,2,3]triazolo[4,5-b]pyridin-7-yl)thio)methyl)-3-chlorobenzonitrile] has an IC50 of 0.2 to 1 µM. In the case of `CCn1nc(C(F)(F)F)cc1CSc1cc(N)nc2[nH]nnc12` [Example 36, 7-(((1-ethyl-3-(trifluoromethyl)-1H-pyrazol-5-yl)methyl)thio)-3H-[1,2,3]triazolo[4,5-b] pyridin-5-amine], the IC50 is reported as 0.2 to 1 µM. Work on `Cc1nn(-c2ccccc2)nc1CSc1cc(N)nc2[nH]nnc12` [Example 65, 7-(((5-methyl-2-phenyl-2H-1,2,3-triazol-4-yl)methyl)thio)-3H-[1,2,3]triazolo[4,5-b]pyridin-5-amine] yielded an IC50 of 0.06 to 0.2 µM. With `COc1ccc(CSc2cc(N)nc3[nH]nnc23)cc1` [Example 9, 7-((4-methoxybenzyl)thio)-3H-[1,2,3]triazolo [4,5-b]pyridin-5-amine] the IC50 was at most 0.06 µM. Work on `Nc1cc(SCc2ccccc2CN2CCOCC2)c2nn[nH]c2n1` [Example 94, 7-((2-(morpholinomethyl)benzyl)thio)-3H-[1,2,3] triazolo[4,5-b]pyridin-5-amine] yielded an IC50 of 0.06 to 0.2 µM. With `Nc1cc(SCc2cccc(F)c2)c2nn[nH]c2n1` [Example 6, 7-((3-fluorobenzyl)thio)-3H-[1,2,3]triazolo [4,5-b]pyridin-5-amine] the IC50 was at most 0.06 µM. Compound `N#Cc1cccc(-n2cccn2)c1CSc1cc(N)nc2[nH]nnc12` [Example 129, 2-(((5-Amino-3H-[1,2,3]triazolo[4,5-b]pyridin-7-yl)thio)methyl)-3-(1H-pyrazol-1-yl)benzonitrile] has an IC50 of 0.2 to 1 µM. In the case of `CN(C)Cc1ccc(F)c(CSc2cc(N)nc3[nH]nnc23)c1` [Example 99, 7-((5-((dimethylamino)methyl)-2-fluorobenzyl)thio)-3H-[1,2,3]triazolo[4,5-b]pyridin-5-amine], the IC50 is reported as 0.06 to 0.2 µM. Work on `Nc1cc(SCc2cn(-c3ccncc3)nc2C(F)F)c2nn[nH]c2n1` [Example 142] yielded an IC50 of at most 0.06 µM. Compound `Cn1nc(CSc2cc(N)nc3[nH]nnc23)cc1-c1ccccc1` [Example 103, 7-(((1-methyl-5-phenyl-1H-pyrazol-3-yl)methyl)thio)-3H-[1,2,3]triazolo[4,5-b] pyridin-5-amine] has an IC50 of 0.06 to 0.2 µM. `COC(=O)C(Sc1cc(N)nc2[nH]nnc12)c1ccccc1Cl` (stereo not shown) [Example 50, methyl 2-((5-amino-3H-[1,2,3]triazolo[4,5-b]pyridin-7-yl)thio)-2-(2-chlorophenyl)acetate] showed an IC50 of 0.06 to 0.2 µM. Compound `Nc1cc(SCc2cn(C3CCCCC3)nc2C(F)(F)F)c2nn[nH]c2n1` [Example 115, 7-(((1-cyclohexyl-3-(trifluoromethyl)-1H-pyrazol-4-yl)methyl)thio)-3H-[1,2,3]triazolo[4,5-b] pyridin-5-amine] has an IC50 of 0.06 to 0.2 µM. `Cc1nn(C)c(Cl)c1CSc1cc(N)nc2[nH]nnc12` [Example 60, 7-(((5-chloro-1,3-dimethyl-1H-pyrazol-4-yl)methyl)thio)-3H-[1,2,3]triazolo[4,5-b]pyridin-5-amine] showed an IC50 of at most 0.06 µM. `Cn1ncc(CSc2nc(N)nc3[nH]nnc23)c1C(F)(F)F` [Example 163, 7-(((1-methyl-5-(trifluoromethyl)-1H-pyrazol-4-yl)methyl)thio)-3H-[1,2,3]triazolo[4,5-d] pyrimidin-5-amine] showed an IC50 of 0.2 to 1 µM. With `Nc1cc(SCc2cnn(Cc3ccccc3)c2)c2nn[nH]c2n1` [Example 32, 7-(((1-benzyl-1H-pyrazol-4-yl)methyl)thio)-3H-[1,2,3] triazolo[4,5-b]pyridin-5-amine] the IC50 was 0.06 to 0.2 µM. `Nc1cc(SC(C(=O)c2ccccc2)c2ccccc2)c2nn[nH]c2n1` (stereo not shown) [Example 40, 2-((5-amino-3H-[1,2,3]triazolo[4,5-b]pyridin-7-yl)thio)-1,2-diphenylethanone] was tested, and the IC50 was 0.2 to 1 µM. `Nc1cc(SCc2cc(F)ccc2F)c2nn[nH]c2n1` [Example 19, 7-((2,5-difluorobenzyl)thio)-3H-[1,2,3]triazolo[4,5-b] pyridin-5-amine] gave an IC50 of at most 0.06 µM. `N#Cc1cccc(F)c1CSc1cc(N)nc2[nH]nnc12` [Example 68, 2-(((5-amino-3H-[1,2,3]triazolo[4,5-b]pyridin-7-yl)thio)methyl)-3-fluorobenzonitrile] gave an IC50 of at most 0.06 µM. `Cc1nn(C2CCC2)c(C)c1CSc1cc(N)nc2[nH]nnc12` [Example 82, 7-(((1-cyclobutyl-3,5-dimethyl-1H-pyrazol-4-yl)methyl)thio)-3H-[1,2,3] triazolo[4,5-b]pyridin-5-amine] showed an IC50 of 0.06 to 0.2 µM.
